We go through 5 compounds from US20140161767A1, “FOLLICLE-STIMULATING HORMONE (FSH)/LYTIC DOMAIN FUSION CONSTRUCTS AND METHODS OF MAKING AND USING SAME” (BOARD OF SUPERVISORS OF LOUISIANA STATE UNIVERSITY AND …, priority 2012, published 2014).

One test has as its system OVCAR-3 xenograft. Briefly: OVCAR-3 ovarian cancer xenograft. It is filed as in vivo. On the procedure:
The xenograft model of the OVCAR-3 human ovarian cancer cell line that present functional LHRH receptors was used in this study. OVCAR-3 represents a slow growing xenograft model and secretes the tumor marker (cancer antigen 125, or CA125). It's secretion can be used as treatment response and is a measure of drug activity.
In brief, Nu/Nu female mice, inbred strain, age 5 weeks (Harlan-Sprague Dawley) were injected subcutaneously with a NIH:OVCAR-3 cells/Matrigel suspension (4.6×10^6 cells/mouse). Treatment was started on day 33 after tumor cell injection when the tumors were established and continued on days 41 and 47. The doses for the 3 weekly injections were 0.02, 0.2 and 2 mg/kg body weight, given as a single bolus intravenous injection via lateral tail vein administered once a week for three weeks on days 33, 41 and 47. Necropsies were conducted on day 52. Data are presented as mean SEM. Arrows show dosing.
A group of 9 tumor bearing mice was sacrificed on day 33 and served as baseline group. All mice were necropsied 51-52 days after tumor cell injection. Tumor volumes and bodyweights were recorded twice weekly during the study, as well as overall veterinarian examination of mice was conducted.
Primary tumors, liver, kidney, pancreas, heart, lung, and spleen were collected, fixed in formalin and prepared for histological evaluation. Tumor weights were measured at necropsy, part of the tumors were frozen at −80° C. for LH/CG and LHRH receptor assay determination.
As a biomarker for drug activity, CA125 was determined in serum, collected from each individual mouse at necropsy using a Enzyme Linked Immunoassay for quantitative determination of ovarian cancer antigen CA125 (Assay kit Genway, Biotech, Inc. San Diego, Calif., Catalog #40-052-115009, # BC-1013 according to the manufacturer).
LHRH receptor levels were assessed from formalin fixed tumors. Quantitative immunoperoxidase image analysis was conducted with the Ventana Image Analysis System (VIAS) adjunctive computer assisted image analysis system functionally connected to an interactive microscope (Axio Imager). The quantitative analysis was conducted with the program for quantification of Her2/neu receptor that included morphometric and colorimetric analysis. Receptor status results were reported as percentage of cells showing positive staining of the LHRH receptors under the following criteria: 0 non-immunoreactive, 1+: 1-25% positive, 2+: 26 50% positive, 3+: 51-75% positive cells.

Another test concerns MDA-MB-435S. The settings on record: cited from earlier work.
The next test concerns PC-3 xenograft. Briefly: PC-3 prostate cancer xenograft, FSH-Phor18 fusion constructs. The settings on record: compared to vehicle. It is filed as in vivo, mice. How it is done:
This example describes in vivo studies in a mouse xenograft model of human prostate cancer (PC-3) with the three types and doses of (3-FSH-Phor18-fusion constructs (hFSH-β-33-53; hFSH-β-81-95 and hFSH-β-90-95).
Male Nu/Nu mice were injected subcutaneously with a PC-3/Matrigel suspension (1×10^6 cells). Mice were allocated into treatment groups of 8 mice per group on day 21 after tumor cell injection. Treatment started on day 1 and continued on day 5, 8, 12, 15 and 19. […] The doses for twice weekly injections were given as a single bolus injection.

Regarding `N.N.[Cl][Pt][Cl]` [Cisplatinum, reference compound], in the test with OVCAR-3 xenograft (Phor18-LHRH: 2 and 0.2 mg/kg vs saline and Phor18, p<0.05), the “Tumor weights at necropsy” value is reported as “not effective”. The Tumor volume result in the test on OVCAR-3 xenograft (during treatment) is “no reduction”.
As to `COc1cccc2c1C(=O)c1c(O)c3c(c(O)c1C2=O)C[C@@](O)(C(=O)CO)C[C@@H]3O[C@H]1C[C@H](N)[C@H](O)[C@H](C)O1` [doxorubicin], in the test with MDA-MB-435S, the “time to destroy human breast cancer cells in vitro” value was 4 h.
“CYTRDLVYKDPARPKIQKTCT [hFSH-β-33-53, unconjugated FSH beta chain fragment]”: the “Tumor volume at necropsy” value in the test on PC-3 xenograft is “did not affect tumor volumes or tumor weights”.
As for “QCHCGKCDSDSTDCT [hFSH-β-81-95, unconjugated FSH beta chain fragment]”, the “Tumor volume at necropsy” value in the test on PC-3 xenograft is given as “did not affect tumor volumes or tumor weights”.
Regarding “DSTDCT (Follitropin subunit beta; UniProt P01225 108-113, looked up, fragment) [hFSH-β-90-95, unconjugated FSH beta chain fragment]”, the “Tumor volume at necropsy” value in the test on PC-3 xenograft is reported as “did not affect tumor volumes or tumor weights”.
